Experimental data from the supplement of paper PMC10307832.

How the values were obtained:
Assay in all cases: relative viability (nuclei count vs DMSO), 5 days (fraction); higher = more cells survive
[1] = system: NCI-H2347
Outline: (§1)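 Lung cancer cell lines were seeded in 1536-well plates and dosed by pin tool the next day, with either a single drug or a fixed anchor-drug dose combined with five library-drug doses (not always all listed) spaced in √10 steps. Five days later, one step fixed the cells and stained their nuclei (final 0.05% Triton X-100, 1% formaldehyde, 1 ug/ml Hoechst), and nuclei were counted on 4× images. Relative viability is the nuclei count in treated wells divided by the count in vehicle wells, and each value is the median of duplicate plates.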

[2] = system: NCI-H2009
Outline: as §1

[3] = system: NCI-H661
Outline: as §1

[4] = system: EMC-BAC-2
Outline: as §1

[5] = system: NCI-H1734
Outline: as §1

[6] = system: HOP-62
Outline: as §1

[7] = system: NCI-H727
Outline: as §1

[8] = system: NCI-H2085
Outline: as §1

[9] = system: NCI-H647
Outline: as §1

[10] = system: LCLC-97TM1
Outline: as §1

[11] = system: H3255
Outline: as §1

Q: Which results are given for `Cc1sc2c(c1C)C(c1ccc(Cl)cc1)=N[C@@H](CC(=O)OC(C)(C)C)c1nnc(C)n1-2` [JQ1] + COc1cccc2cc(-c3nc([C@H]4CC[C@H](C(=O)O)CC4)n4ncnc(N)c34)[nH]c12 [OSI-027] (partner 0.5 µM)?
A: relative viability ([1]; first compound 0.04 µM): 0.328; relative viability ([1]; first compound 0.1265 µM): 0.536; relative viability ([1]; first compound 0.4 µM): 0.305; relative viability ([1]; first compound 1.265 µM): 0.346; relative viability ([1]; first compound 4 µM): 0.31; relative viability ([2]; first compound 0.04 µM): 0.558; relative viability ([2]; first compound 0.1265 µM): 0.471; relative viability ([2]; first compound 0.4 µM): 0.318; relative viability ([2]; first compound 1.265 µM): 0.185; relative viability ([2]; first compound 4 µM): 0.179; relative viability ([3]; first compound 0.04 µM): 0.714; relative viability ([3]; first compound 0.1265 µM): 0.517; relative viability ([3]; first compound 0.4 µM): 0.603; relative viability ([3]; first compound 1.265 µM): 0.423; relative viability ([3]; first compound 4 µM): 0.453; relative viability ([4]; first compound 0.04 µM): 0.405; relative viability ([4]; first compound 0.1265 µM): 0.286; relative viability ([4]; first compound 0.4 µM): 0.301; relative viability ([4]; first compound 1.265 µM): 0.189; relative viability ([4]; first compound 4 µM): 0.224; relative viability ([5]; first compound 0.04 µM): 0.619; relative viability ([5]; first compound 0.1265 µM): 0.508; relative viability ([5]; first compound 0.4 µM): 0.601; relative viability ([5]; first compound 1.265 µM): 0.354; relative viability ([5]; first compound 4 µM): 0.413; relative viability ([6]; first compound 0.04 µM): 0.826; relative viability ([6]; first compound 0.1265 µM): 0.613; relative viability ([6]; first compound 0.4 µM): 0.45; relative viability ([6]; first compound 1.265 µM): 0.189; relative viability ([6]; first compound 4 µM): 0.149; relative viability ([7]; first compound 0.04 µM): 0.576; relative viability ([7]; first compound 0.1265 µM): 0.582; relative viability ([7]; first compound 0.4 µM): 0.414; relative viability ([7]; first compound 1.265 µM): 0.375; relative viability ([7]; first compound 4 µM): 0.406; relative viability ([8]; first compound 0.04 µM): 0.763; relative viability ([8]; first compound 0.1265 µM): 0.519; relative viability ([8]; first compound 0.4 µM): 0.574; relative viability ([8]; first compound 1.265 µM): 0.368; relative viability ([8]; first compound 4 µM): 0.323; relative viability ([9]; first compound 0.04 µM): 0.567; relative viability ([9]; first compound 0.1265 µM): 0.469; relative viability ([9]; first compound 0.4 µM): 0.388; relative viability ([9]; first compound 1.265 µM): 0.293; relative viability ([9]; first compound 4 µM): 0.174; relative viability ([10]; first compound 0.04 µM): 0.476; relative viability ([10]; first compound 0.1265 µM): 0.674; relative viability ([10]; first compound 0.4 µM): 0.594; relative viability ([10]; first compound 1.265 µM): 0.4; relative viability ([10]; first compound 4 µM): 0.199; relative viability ([11]; first compound 0.04 µM): 0.532; relative viability ([11]; first compound 0.1265 µM): 0.672; relative viability ([11]; first compound 0.4 µM): 0.629; relative viability ([11]; first compound 1.265 µM): 0.438; relative viability ([11]; first compound 4 µM): 0.444
